# Source: PubChem BioAssay AID720589 (Broad Institute, 2013)
# The source made the active and inactive calls.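 Rule for the calls: active = fitted curve drops below -35% activity at a concentration within twice the top valid tested dose; inconclusive = no clear call, values can overlap the other calls; inactive = signal rising instead of falling, among other cases.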
# Assay: ATP-based viability loss in HepG2 cells – cell-based, CellTiter-Glo luminescence, cherry-pick, set 3, cytotoxicity control, dose response (AID 720589)
# Conditions: HepG2 viability, ATP luminescence (CellTiter-Glo), 72 h; at 0.011 µM; stronger effect = lower value; 0% = untreated, negative = ATP loss
row,SMILES,max activity
1,COc1ccc(C=NNc2nc3ccccc3s2)cc1,-25.7% (inactive)
2,COc1cc(C(c2c(C)[nH][nH]c2=O)c2c(C)[nH][nH]c2=O)ccc1OC(C)C,22.1% (inactive)
3,CC(=NNc1ccc2ccccc2n1)c1ccccc1O,-35.4% (inactive)
4,CCOC(=O)c1c(-c2ccc(C)cc2)csc1NC(=O)CCN1CCOCC1,41.8% (inactive)
5,C/C=C/c1ccc([C@H]2[C@@H](CO)N3C(=O)CN(S(=O)(=O)c4cccc(F)c4)C[C@@H]23)cc1,26.3% (inactive)
6,CC(C)c1ccc(OCc2cccc(C(=O)N/N=C/c3cccnc3)c2)cc1,8.88% (inactive)
7,COc1ccc(C(=O)Nc2cccc(C(=O)N/N=C/c3ccc(OC)cc3OC)c2)cc1,23.8% (inactive)
8,CC(=O)Nc1ccc(OCC(=O)N(CC(C)C)C2CCS(=O)(=O)C2)cc1 (stereo not given),42.5% (inactive)
9,CN(C)[C@@H]1CCC[C@@H]1OC(=O)C(c1ccccc1)c1ccccc1,32.6% (inactive)
10,CCOc1ccc(-c2noc(CCC(=O)O)n2)cc1,7.93% (inactive)

# Same assay, conditions: HepG2 viability, ATP luminescence (CellTiter-Glo), 72 h; at 0.035 µM; stronger effect = lower value; 0% = untreated, negative = ATP loss
row,SMILES,max activity
1,Cc1c(Cl)cnc(NC(=O)COC(=O)c2ccc3ncsc3c2)c1Cl,-18.7% (inactive)
2,O=C(O)c1ccccc1C(=O)Nc1ccc(Oc2cccc3ccccc23)cc1,-12.6% (inactive)
3,Nc1ncn([C@@H]2O[C@H](CO)[C@@H](O)[C@H]2O)c(=O)n1,16% (inactive)
4,COc1ccc(S(=O)(=O)N2CC[C@@H]3[C@@H](CO)Nc4ccc(-c5ccc(C#N)cc5)cc4[C@@H]32)cc1,-30.2% (inactive)
5,O=C(O)CN1C(=O)/C(=C\c2ccccc2OCc2ccc(Cl)cc2Cl)SC1=S,-18.9% (inactive)
6,COc1ccc(/C=C2\SC(=O)N(CCCC(=O)Nc3cc(Cl)ccc3C(=O)O)C2=O)cc1,-25.6% (inactive)
7,CCCn1c(C)cc(C(=O)CN2C(=O)c3ccccc3S2(=O)=O)c1C,5.3% (inactive)

# Same assay, conditions: HepG2 viability, ATP luminescence (CellTiter-Glo), 72 h; at 0.1 µM; stronger effect = lower value; 0% = untreated, negative = ATP loss
row,SMILES,max activity
1,COc1ccc(OC)c(-c2cc(C(F)(F)F)c3c(n2)sc2c(O)cc(=O)[nH]c23)c1,-37% (inactive)
2,COC(=O)C[C@@H]1CC[C@@H]2[C@H](COc3ccc(NC(=O)Nc4cccc(C#N)c4)cc3C(=O)N2C)O1,28.5% (inactive)
3,Cc1c(Cc2ccc3c(c2)OCO3)sc(NC(=O)C(C)(C)C)c1C#N,-26.7% (inactive)
4,Cc1[nH]c(=S)sc1Cc1ccc(Cl)c(Cl)c1,-20.8% (inactive)
5,C[C@H](CO)N1C[C@H](C)[C@H](CN(C)Cc2ccc(C(F)(F)F)cc2)Oc2c(NS(=O)(=O)c3ccc(Cl)cc3)cccc2C1=O,-20% (inactive)
6,C[C@@H]1CN([C@@H](C)CO)S(=O)(=O)c2ccc(C#CCN(C)C)cc2O[C@@H]1CN(C)Cc1ccncc1,-45% (inactive)
7,CC(=O)c1ccc(NC(=O)c2noc3c2CCC3)cc1,-34.6% (inactive)

# Same assay, conditions: HepG2 viability, ATP luminescence (CellTiter-Glo), 72 h; at 0.3 µM; stronger effect = lower value; 0% = untreated, negative = ATP loss
row,SMILES,max activity
1,CN(C)c1ccc(N=Nc2ccc(C(=O)O)cc2)cc1,-28.7% (inactive)
2,COCc1cc(C)nc2sc(C(=O)NCCO)c(-n3cccc3)c12,7.49% (inactive)
3,C[C@H](CO)N1C[C@H](C)[C@@H](CN(C)Cc2ccc(C(F)(F)F)cc2)OCCCC[C@H](C)Oc2ccc(NS(=O)(=O)c3ccc(F)cc3)cc2C1=O,27.5% (inactive)
4,Cc1ccc(Cc2c(-c3ccco3)nc3c(C)cc(Br)cn23)cc1,-46.1% (inactive)
5,COC(=O)C[C@@H]1CC[C@@H]2[C@@H](COc3ccc(NC(=O)Nc4ccccc4C)cc3C(=O)N2C)O1,-23.1% (inactive)
6,COC(=O)C[C@H]1CC[C@@H]2[C@H](COc3ccc(NC(=O)Nc4cccc(Cl)c4)cc3C(=O)N2C)O1,-38.3% (inactive)
7,CC(C)(C)C(=O)Nc1ccc(N=Nc2ccccc2)cc1,-12.3% (inactive)
8,COc1ccc(CN(C)c2ncnc3sccc23)c(OC)c1OC,-16.5% (inactive)

# Same assay, conditions: HepG2 viability, ATP luminescence (CellTiter-Glo), 72 h; at 0.8 µM; stronger effect = lower value; 0% = untreated, negative = ATP loss
row,SMILES,max activity
1,Cc1ccc(S(=O)(=O)N(C)C[C@@H]2Oc3ccc(NC(=O)CCCCCC(=O)Nc4ccccc4N)cc3CC(=O)N([C@@H](C)CO)C[C@@H]2C)cc1,-38.7% (inactive)

# Same assay, conditions: HepG2 viability, ATP luminescence (CellTiter-Glo), 72 h; at 0.9 µM; stronger effect = lower value; 0% = untreated, negative = ATP loss
row,SMILES,max activity
1,N#C[C@H]1[C@H](c2ccc(-c3ccccc3F)cc2)[C@@H](CO)N1C(=O)c1ccccn1,-27.4% (inactive)
2,Cc1ccc(NC(=O)COC(=O)c2ccc3c(c2)OCO3)cc1S(=O)(=O)N1CCCCC1,-30.2% (inactive)
3,COC(=O)C[C@@H]1CC[C@@H]2[C@H](COc3ccc(NC(=O)Nc4ccc(C#N)cc4)cc3C(=O)N2C)O1,-48.5% (inactive)

# Same assay, conditions: HepG2 viability, ATP luminescence (CellTiter-Glo), 72 h; at 2.85 µM; stronger effect = lower value; 0% = untreated, negative = ATP loss
row,SMILES,max activity
1,O=C(C[C@@H]1C[C@H]2c3cc(NC(=O)CC4CC4)ccc3O[C@H]2[C@H](CO)O1)NCc1ccccc1F,-31.6% (inactive)
2,N#C[C@@H]1[C@H](c2ccc(C#Cc3ccccc3F)cc2)[C@@H](CO)N1C(=O)c1cccnc1,-22% (inactive)
3,COc1ccc(C(=O)NCCNc2nc3cc(C)cc(C)c3cc2C#N)c(OC)c1,-25.6% (inactive)
4,Cc1ccccc1N=CC1=C(O)c2ccccc2C1=O,18.8% (inactive)
5,COC(=O)C[C@@H]1CC[C@@H]2[C@@H](COc3ccc(NC(=O)Nc4cccc(F)c4)cc3C(=O)N2C)O1,-34.7% (inactive)
6,C[C@H](CO)N1C[C@H](C)[C@H](CN(C)Cc2ccc(C(=O)Nc3ccccc3N)cc2)Oc2ccc(NS(=O)(=O)c3cccs3)cc2C1=O,-29.1% (inactive)
7,CN(C)c1ccc(N=Nc2ccccc2Br)cc1,-41.2% (inactive)
8,Cc1ccc2c(c1)C(=O)N1[C@H]3c4cc(Br)ccc4OC[C@@H]3[C@H](c3ccccc3)[C@]1(C)C(=O)N2,-19.3% (inactive)
9,O=C(Sc1cccc2cccnc12)c1ccccc1Br,-31.3% (inactive)
10,COc1cc(-c2coc3c(C(=O)NCc4ccc(C(F)(F)F)cc4)cccc23)ccc1O,-25.6% (inactive)
11,CN=c1scc(-c2ccccc2F)n1/N=C/c1ccc(O)c(O)c1O,-42.6% (inactive)

# Same assay, conditions: HepG2 viability, ATP luminescence (CellTiter-Glo), 72 h; at 3 µM; stronger effect = lower value; 0% = untreated, negative = ATP loss
row,SMILES,max activity
1,CCNC(=O)c1cc2c(c(-c3cccc(-c4cccc(OC)c4)c3)n1)[C@H](CCO)N([S@@](=O)C(C)(C)C)C2,-28.9% (inactive)

# Same assay, conditions: HepG2 viability, ATP luminescence (CellTiter-Glo), 72 h; at 8 µM; stronger effect = lower value; 0% = untreated, negative = ATP loss
row,SMILES,max activity
1,COC(=O)C[C@H]1CC[C@@H](NC(=O)Nc2ccc(C(F)(F)F)cc2)[C@H](CO)O1,-14.3% (inactive)
2,COC(=O)c1cccc(NC(=O)NC(=O)c2ccc(Cl)cc2)c1,-15.3% (inactive)
3,COc1ccc(C2=Nn3c([n+](C)c4ccccc43)SC2)cc1,-28.7% (inactive)
4,CN(C)c1ccc(-c2ccnc3c2CC(C)(C(=O)NCc2ccco2)O3)cc1 (stereo not given),-25.6% (inactive)
5,COc1ccc(C2c3cc4c(cc3OC(NNC(N)=O)C2C)OCO4)cc1 (stereo not given),-29.8% (inactive)
6,COc1ccc2oc(-c3ccccc3)cc(=O)c2c1,25.1% (inactive)
7,N#CC1=C(N)Oc2cc(N)ccc2C1c1cccc(F)c1 (stereo not given),-30% (inactive)
8,COc1ccc(OC)c(/C=C/c2ccnc3ccccc23)c1,-41.5% (inactive)

# Same assay, conditions: HepG2 viability, ATP luminescence (CellTiter-Glo), 72 h; at 23.5 µM; stronger effect = lower value; 0% = untreated, negative = ATP loss
row,SMILES,max activity
1,C[C@H](CO)N1C[C@H](C)[C@H](CN(C)Cc2ccccc2)Oc2ccc(NC(=O)CCCCCC(=O)Nc3ccccc3N)cc2CC1=O,-23.9% (inactive)
2,O=S(=O)(c1ccc(F)cc1)N1C[C@H]2[C@@H](c3ccccc31)[C@H](CO)N2Cc1ccccc1Cl,-21.9% (inactive)

# Same assay, conditions: HepG2 viability, ATP luminescence (CellTiter-Glo), 72 h; at 26 µM; stronger effect = lower value; 0% = untreated, negative = ATP loss
row,SMILES,max activity
1,COc1ccc(Cl)cc1S(=O)(=O)Nc1ccc2c(c1)n(C)c(=O)n2C,-15.6% (inactive)
2,Cc1ccc2nc(-c3ccccc3)nn2c1,-45.7% (inactive)
3,Cc1ccccc1S(=O)(=O)N1CC[C@@H]2[C@@H](CO)Nc3ccc(-c4ccc(C#N)cc4)cc3[C@@H]21,-21.8% (inactive)
4,Cc1nn(-c2ccc(F)cc2)c2nc(N)c(C#N)c(-c3ccc(O)c(O)c3)c12,-39.7% (inactive)
5,O=C(/C=C/c1ccc(Cl)cc1Cl)N(Cc1ccc(Cl)cc1)C1CCS(=O)(=O)C1 (stereo not given),14% (inactive)
6,CC(C)(C)c1ccc(Oc2ccc(NC(=O)C3CC=CCC3C(=O)O)cc2)cc1 (stereo not given),17.4% (inactive)
7,CC(NC(=O)c1ccco1)c1nc(-c2ccc(C(C)(C)C)cc2)no1 (stereo not given),-24.1% (inactive)
8,CCCn1nnc(NC(=S)NC(=O)C(C)(C)C)n1,-35.2% (inactive)
9,O=C(CCCN1C(=O)/C(=C/c2ccccc2Cl)SC1=S)NNC(=O)c1ccc(Cl)cc1,22.9% (inactive)
10,O=C(O)c1cccc(N/N=C/c2cccs2)c1,-13.2% (inactive)
11,Cc1ccc(N2C(=O)c3cccc4c(N)ccc(c34)C2=O)c2cccnc12,-20.7% (inactive)
12,CCOc1ccc(OCc2ccc(C(=O)NN=Cc3ccc[nH]3)cc2)cc1,-34% (inactive)
13,CC1=NN(c2ccc(C)cc2)C(=O)/C1=C\C=C\c1ccccc1,-23.5% (inactive)
14,Cc1nc2ncccn2c1-c1csc(Nc2ccc(O)cc2)n1,-23.1% (inactive)
15,Cc1ccc(C(CC(=O)O)Nc2nc(N3CCOCC3)nc(N3CCOCC3)n2)cc1 (stereo not given),36.9% (inactive)
16,COc1cccc(OC)c1C(=O)Nc1cc(C)nn1-c1nc2ccccc2[nH]1,-39.9% (inactive)
17,COc1ccc(CNc2ncc(-c3ccc(F)cc3)n2C)c2ccccc12,-23.1% (inactive)
